Assay [1] deals with T1, cGAS (Homo sapiens, UniProt Q8N884). The assay is described as follows: Cellular assay to measure cGAS activity (IFNb AlphaLISA in THP1 cells stimulated by RDG-Adenovirus-GFP). The assay is classed as cell-based. More on the design: host or cells: THP1 cells differentiated with PMA and stimulated with RDG-Adenovirus-GFP. To be noted: PMA-differentiated THP1 cells, RDG-Adenovirus-GFP at 1000 MOI; inhibition of IFNb production as marker for cGAS activity. An outline of the steps: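 PMA-differentiated THP1 cells were infected with RDG-Adenovirus-GFP at 1000 MOI for 4 h, then exposed overnight to test compounds. IFNb in the supernatant was quantified by AlphaLISA as a cGAS activity marker, and IC50 was fitted with a 4-parameter logistic equation.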
T1 sequence (Q8N884 whole entry): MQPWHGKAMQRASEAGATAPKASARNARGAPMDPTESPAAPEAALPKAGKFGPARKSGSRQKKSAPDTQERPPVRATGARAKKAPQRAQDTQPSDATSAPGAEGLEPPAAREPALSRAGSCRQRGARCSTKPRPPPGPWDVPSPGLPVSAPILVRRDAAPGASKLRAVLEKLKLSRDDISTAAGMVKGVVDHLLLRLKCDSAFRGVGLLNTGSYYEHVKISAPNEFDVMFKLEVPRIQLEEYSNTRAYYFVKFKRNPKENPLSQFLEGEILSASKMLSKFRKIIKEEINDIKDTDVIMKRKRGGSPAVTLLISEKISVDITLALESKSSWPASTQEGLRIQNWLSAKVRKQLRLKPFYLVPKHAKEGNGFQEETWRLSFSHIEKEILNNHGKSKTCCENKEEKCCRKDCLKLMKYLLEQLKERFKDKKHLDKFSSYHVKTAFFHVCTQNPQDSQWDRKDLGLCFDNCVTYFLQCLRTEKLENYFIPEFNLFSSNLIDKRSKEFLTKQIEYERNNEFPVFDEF
For orientation: Alpha assays give light when donor and acceptor beads are brought close together.

Assay [2] has as its target T1, cGAS. The assay is described as follows: In vitro inhibition assay of cGAS activity (cGAMP production, RapidFire mass spectrometry). The assay is classed as biochemical. Also noted: Insert cDNA encoding full-length of human cGAS; His6; made in house; host or cells: E. coli BL21(DE3). To be noted: 10 nM recombinant human cGAS, 60 nM 75-bp dsDNA, 50 μM ATP, 50 μM GTP, 3 hrs. In a few lines:
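His6-tagged full-length human cGAS (10 nM, E. coli-expressed) was incubated for 3 hrs at ambient temperature with 60 nM 75-bp dsDNA, 50 μM ATP and 50 μM GTP in Tris pH 7.5/MgCl2 buffer with compound dilutions. cGAMP was quantified by RapidFire mass spectrometry against an internal standard, and IC50 was obtained by 4-parameter logistic fit.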

Each structure is given as a SMILES string.

What is called IC50 is the point on the concentration scale where inhibition reaches its midpoint. With `COCC[C@H]1CNC(=O)[C@@H](C)c2c1[nH]c1c(Cl)c(Cl)cc(NCCO)c21` (single isomer, unassigned) [Example 173], the IC50 was 1610 nM against cGAS [1] and 14.7 nM on cGAS [2].
The corresponding values for `COCC[C@H]1CNC(=O)[C@@H](C)c2c1[nH]c1c(Cl)c(Cl)cc(NCCO)c21` (single isomer, unassigned) [Example 174] are over 10000 nM and 361 nM.
Taken in the same sequence, the figures for `Cn1ncc(-c2cc(Cl)c(Cl)c3[nH]c4c(c23)CC(=O)NC[C@H]4CCN2CCOCC2)n1` (single isomer, unassigned) [Example 175] were 1440 nM and 54.6 nM.
With `C[C@@H]1C(=O)NCCc2[nH]c3c(Cl)c(Cl)cc(OCc4cocn4)c3c21` (single isomer, unassigned) [Example 178, (S)-7,8-Dichloro-1-methyl-10-(oxazol-4-ylmethoxy)-3,4,5,6-tetrahydroazepino[4,5-b]indol-2(1H)-one or (R)-7,8-dichloro-1-methyl-10-(oxazol-4-ylmethoxy)-3,4,5,6-tetrahydroazepino[4,5-b]indol-2(1H)-one], the IC50 at cGAS [1] is 311 nM; on cGAS [2], 10.8 nM.
In the case of `C[C@@H]1C(=O)NCCc2[nH]c3c(Cl)c(Cl)cc(OCc4cocn4)c3c21` (single isomer, unassigned) [Example 179, (S)-7,8-Dichloro-1-methyl-10-(oxazol-4-ylmethoxy)-3,4,5,6-tetrahydroazepino[4,5-b]indol-2(1H)-one or (R)-7,8-dichloro-1-methyl-10-(oxazol-4-ylmethoxy)-3,4,5,6-tetrahydroazepino[4,5-b]indol-2(1H)-one], the IC50 on cGAS [1] is over 10000 nM; at cGAS [2], 2120 nM.
Turning to `C[C@H](O)C(=O)Nc1cc(Cl)c(Cl)c2[nH]c3c(c12)[C@@H](C)C(=O)NCC3(C)C` (single isomer, unassigned) [Example 181, (S)—N—((R)-7,8-Dichloro-1,5,5-trimethyl-2-oxo-1,2,3,4,5,6-hexahydroazepino[4,5-b]indol-10-yl)-2-hydroxypropanamide or (S)—N—((S)-7,8-dichloro-1,5,5-trimethyl-2-oxo-1,2,3,4,5,6-hexahydroazepino[4,5-b]indol-10-yl)-2-hydroxypropanamide], the IC50 at cGAS [1] is over 10000 nM; on cGAS [2], over 39800 nM.
Taken in the same sequence, the figures for `C[C@H](O)C(=O)Nc1cc(Cl)c(Cl)c2[nH]c3c(c12)[C@@H](C)C(=O)NCC3(C)C` (single isomer, unassigned) [Example 182, (S)—N—((R)-7,8-Dichloro-1,5,5-trimethyl-2-oxo-1,2,3,4,5,6-hexahydroazepino[4,5-b]indol-10-yl)-2-hydroxypropanamide or (S)—N—((S)-7,8-dichloro-1,5,5-trimethyl-2-oxo-1,2,3,4,5,6-hexahydroazepino[4,5-b]indol-10-yl)-2-hydroxypropanamide] were 1180 nM and 45.6 nM.
Taken in the same sequence, the figures for `COCCOc1cc(Cl)c(Cl)c2[nH]c3c(c12)[C@H](C)C(=O)NCC3(C)C` (single isomer, unassigned) [Example 184, (S)-7,8-Dichloro-10-(2-methoxyethoxy)-1,5,5-trimethyl-3,4,5,6-tetrahydroazepino[4,5-b]indol-2(1H)-one or (R)-7,8-dichloro-10-(2-methoxyethoxy)-1,5,5-trimethyl-3,4,5,6-tetrahydroazepino[4,5-b]indol-2(1H)-one] were 1370 nM and 17.4 nM.
The corresponding values for `COCCOc1cc(Cl)c(Cl)c2[nH]c3c(c12)[C@H](C)C(=O)NCC3(C)C` (single isomer, unassigned) [Example 185, (S)-7,8-Dichloro-10-(2-methoxyethoxy)-1,5,5-trimethyl-3,4,5,6-tetrahydroazepino[4,5-b]indol-2(1H)-one or (R)-7,8-Dichloro-10-(2-methoxyethoxy)-1,5,5-trimethyl-3,4,5,6-tetrahydroazepino[4,5-b]indol-2(1H)-one] are over 10000 nM and 1890 nM.
In the case of `C[C@@H]1C(=O)NCCc2c1c1c(NC(=O)CO)cc(Cl)c(Cl)c1n2CC(F)(F)F` (single isomer, unassigned) [Example 186, (S)—N-(7,8-Dichloro-1-methyl-2-oxo-6-(2,2,2-trifluoroethyl)-1,2,3,4,5,6-hexahydroazepino[4,5-b]indol-10-yl)-2-hydroxyacetamide or (R)—N-(7,8-Dichloro-1-methyl-2-oxo-6-(2,2,2-trifluoroethyl)-1,2,3,4,5,6-hexahydroazepino[4,5-b]indol-10-yl)-2-hydroxyacetamide], the IC50 against cGAS [1] stood at 4340 nM; at cGAS [2] it was 48.9 nM.
The corresponding values for `C[C@@H]1C(=O)NCCc2c1c1c(NC(=O)CO)cc(Cl)c(Cl)c1n2CC(F)(F)F` (single isomer, unassigned) [Example 187, (S)—N-(7,8-Dichloro-1-methyl-2-oxo-6-(2,2,2-trifluoroethyl)-1,2,3,4,5,6-hexahydroazepino[4,5-b]indol-10-yl)-2-hydroxyacetamide or (R)—N-(7,8-Dichloro-1-methyl-2-oxo-6-(2,2,2-trifluoroethyl)-1,2,3,4,5,6-hexahydroazepino[4,5-b]indol-10-yl)-2-hydroxyacetamide] are over 10000 nM and over 39800 nM.
For `CC1C(=O)NCCc2[nH]c3c(Cl)c(Cl)cc(NCc4cocn4)c3c21` (stereo in doubt) [Example 58, (S′)-7,8-Dichloro-1-methyl-10-((oxazol-4-ylmethyl)amino)-3,4,5,6-tetrahydroazepino[4,5-b]indol-2(1H)-one Or (R)-7,8-Dichloro-1-methyl-10-((oxazol-4-ylmethyl)amino)-3,4,5,6-tetrahydroazepino[4,5-b]indol-2(1H)-one], the IC50 worked out at 577 nM on cGAS [1] and 16.5 nM at cGAS [2].
Taken in the same sequence, the figures for `CC1C(=O)NCCc2[nH]c3c(Cl)c(Cl)cc(NCc4cocn4)c3c21` (stereo in doubt) [Example 59, (S′)-7,8-Dichloro-1-methyl-10-((oxazol-4-ylmethyl)amino)-3,4,5,6-tetrahydroazepino[4,5-b]indol-2(1H)-one Or (R)-7,8-Dichloro-1-methyl-10-((oxazol-4-ylmethyl)amino)-3,4,5,6-tetrahydroazepino[4,5-b]indol-2(1H)-one] were over 10000 nM and 2000 nM.
The corresponding values for `CC1C(=O)NCCc2[nH]c3c(Cl)c(Cl)cc(NC4CCOC4)c3c21` (stereo in doubt) [Example 66, 7,8-Dichloro-1-methyl-10-(((R)-tetrahydrofuran-3-yl)amino)-3,4,5,6-tetrahydroazepino[4,5-b]indol-2(1H)-one] are 4150 nM and 37.5 nM.
Regarding `Cn1ncc(-c2cc(Cl)c(F)c3[nH]c4c(c23)CC(=O)NCC4)n1` [Example 1, 8-Chloro-7-fluoro-10-(2-methyl-2H-1,2,3-triazol-4-yl)-3,4,5,6-tetrahydroazepino[4,5-b]indol-2(1H)-one], the values for the concentration for half-maximal inhibition (IC50) against cGAS [1] and on cGAS [2] were 2640 nM and 33.4 nM, respectively.
With `Cn1ncc(-c2cc(Cl)c(Cl)c3[nH]c4c(c23)CC(=O)NCC4)n1` [Example 2, 7,8-Dichloro-10-(2-methyl-2H-1,2,3-triazol-4-yl)-3,4,5,6-tetrahydroazepino[4,5-b]indol-2(1H)-one], the IC50 was 819 nM against cGAS [1] and 20.5 nM at cGAS [2].

The values are drawn from US20240246979A1, “cGAS INHIBITORS” (Eli Lilly and Company, priority 2022, published 2024).
